Laboratory results published in article PMC11459959, “Discovery of new acetamide derivatives of 5-indole-1,3,4-oxadiazol-2-thiol as inhibitors of HIV-1 Tat-mediated viral transcription” (Antimicrobial Agents and Chemotherapy, 2024).
Like-named read-outs stand apart in the source and are kept apart here.

Columns and labels:
HIV-1NL4-3 = assay: HIV-1 infectivity in TZM-bl cells (F-Luc); format: cell-based; details: for EC50: Human immunodeficiency virus 1, TZM-bl, 48 h, TZM-bl cells infected with HIV-1NL4-3 at MOI 1, 48 h, F-Luc, mean ± SD; for SI (CC50/EC50) / inhibitory effect on HIV-1 infection (in words): TZM-bl cells; for inhibitory effect on HIV-1 infection (in words): HIV-1NL4-3
Method: (§3) The TZM-bl cells (also referred to as JC53BL-13) expressing human CD4, CXCR4, and CCR5 carrying the F-Luc and lacZ genes downstream of the HIV-1 LTR promoter ([60]) were used to determine the inhibitory effect of the compounds on HIV-1 infection, as previously described ([11], [12], [61]). In brief, 1 × 10^4 cells were cultured in 96-well plates for 24 h and subsequently treated with compounds at the indicated concentrations. Without replacement of the culture medium, the cells were subsequently infected with the HIV-1NL4-3 wild-type or ARV-resistant HIV-1 strains at an MOI of 1 to determine the exact inhibitory effect of compounds on a single-round infection. After 48 h, the inhibitory effect of the compounds was determined using a Bright Glo luciferase assay kit (Promega) or β-Galactosidase Enzyme Assay kit (Promega). The infectivity data were presented as a percentage relative to the dimethyl sulfoxide (DMSO) control (vehicle). Cell viability was determined using the resazurin-based PrestoBlue Cell Viability Reagent (Thermo Fisher Scientific, Waltham, MA, USA) following the manufacturer’s instructions.

[1] = system: Tat-mediated LTR transcription; assay: Dual-reporter assay, F-Luc (Tat-mediated LTR transcription) in bl-DTR cells; format: cell-based, HIV-1; details: for IC50: Human immunodeficiency virus 1, 24 h, read-out: IC50 of F-Luc (Tat); for inhibitory effect on Tat (in words): F-Luc
Method: (§1) Fig 1 (A) (Top panel) Schematic representation of the primary compound screening using a dual-reporter system. […] (B). […] (Top graphs) bl-DTR cells (1 × 10^4) were treated with twofold serial dilutions of each compound before doxycycline (Dox) addition (final concentration, 50 ng/mL). After 24 h of treatment, the activities of firefly luciferase (F-Luc, red line) and Renilla luciferase (R-Luc, blue line) were determined using the Dual-Glo Luciferase assay system. (Bottom graphs) TZM-bl cells were treated with each indicated compound and subsequently infected with the HIV-1NL4-3 strain at a multiplicity of infection (MOI) of 1. At 48 h after infection, the viral infectivity (purple line) and cell viability (green line) were determined using the Bright-Glo luciferase assay kit and the PrestoBlue Cell Viability Reagent, respectively. […] (C). […] The targeted moieties for the SAR study are marked with dotted-circle lines.
(§2) The Tzm-bl-derived dual Tat reporter; TZM-bl/Tat/Rluc (bl-DTR) cells were established from TZM-bl cells using two Dox-inducible lentiviral expression cassettes cloned with Flag-tagged Tat86 and the R-Luc gene, as described in our previous study ([11]). TZM-bl, A3.01, J1.1, and J-Lat 6.3 cells as well as the HIV-1 molecular clone pNL4-3, pNL(AD8), ARV-resistant HIV-1 strains, and HIV-1NL43-IRES-eGFP (pBR43IeG-nef^+, gifted by Dr. Frank Kirchhoff) ([52]) were provided by the National Institute of Health HIV Reagent Program (NIH, Bethesda, MD, USA). HeLa (CCL-2) and 293T (CRL-3216) cell lines were purchased from the American Type Culture Collection (ATCC, Manassas, VA, USA). The bl-DTR, TZM-bl, HeLa, and 293T cells were cultured in Dulbecco’s modified Eagle’s medium supplemented with 1% penicillin–streptomycin and 10% (vol/vol) heat-inactivated fetal bovine serum (all from Gibco-BRL, Gaithersburg, MD, USA), and 1 µg/mL of puromycin and 200 µg/mL of zeocin were additionally supplemented for the bl-DTR cells. PBMCs were purchased from AllCells (Alameda, CA, USA) and cultured as previously described ([12]). The information on ARV-resistant HIV-1 strains was described in previous reports as follows: NNRTI-resistant 12241 and 12243 ([53]); NRTI-resistant 7396, 7406, and 7407 ([54]); INSTI-resistant 11847 and 11849 ([55], [56]); and PI-resistant 11800 and 11803 ([57]). Each molecular HIV-1 clone was transfected to 293T cells, as previously described ([58]), to obtain infectious HIV-1 particles. Virus-containing cell culture supernatants were collected 3 days after transfection, and filtered through a 0.45-µm membrane filter (Millipore Sigma, Burlington, MA, USA) to remove cell debris. The viral titration was performed as described previously ([59]) with some minor modifications. In brief, 1 × 10^4 TZM-bl cells seeded in 96-well plates were infected with 200 µL of virus-containing medium diluted serially twofold. The incubation was for 2 days and the experiment was performed in triplicate; the infection time minimized the virus spread ([59]). The titration of the infectious viral particles was performed with a ß-Gal staining assay using the ßeta-Galactosidase Staining Kit (Mirus Bio, Madison, WI, USA) following the manufacturer’s protocols. In brief, the infected cells were washed with phosphate-buffered saline (PBS) and fixed using a Cell Fixative Working solution. The cells were washed with PBS and stained using the Cell Staining Working Solution containing X-gal. The infected blue-colored cells were counted under a microscope (100× magnification). The infectious virus titer was determined as a mean value of blue-colored cells count × dilution factor and used for determining the multiplicity of infection (MOI) in each infection experiment.

[2] = Cell viability of TZM-bl cells (PrestoBlue); format: cell-based; details: human
Method: as §3

[3] = system: general cellular transcription/translation (R-Luc); assay: Dual-reporter assay, R-Luc in bl-DTR cells; format: cell-based; details: doxycycline, 24 h
Method: as §1, §2

[4] = system: HIV-1NL4-3 IRES-eGFP-nef+; assay: eGFP-encoding HIV-1 infection of TZM-bl cells; format: cell-based; details: 9, 10, 13 1.5 μM, 20, 21, 22 4 μM, seliciclib 10 µM, triptolide 5 nM, DTG 2 nM, EFV 2 nM, 2 days
Method: Fig 4 (A) Comparison of the chemical structures between prominent derivatives (9, 10, and 13) and non-functional derivatives (20, 21 and 22). (B) bl-DTR cells were treated with serial dilutions of each compound upon Dox for 24 h. The activities of F-Luc and R-Luc were determined using the Dual-Glo -Luciferase assay system. (C) TZM-bl cells were infected with the HIV-1NL4-3 strain at an MOI of 1 upon treatment of compounds. At 48 h after infection, the viral infectivity and cell viability were determined as described above (Fig. 1). (D) TZM-bl cells were infected with HIV-1NL4-3 IRES-eGFP virus along with the compound treatment. Two days later, GFP-expressing cells were observed by fluorescence microscopy (100× magnification). […] At 48 h after infection, the β-gal activity indicating viral infectivity was determined using the β-gal Enzyme Assay kit. F-Luc activity and cell viability were determined as described above (Fig. 4C). (C and E) The dose-response curves show the relative activity compared with that of the DMSO vehicle (mean ± SD; n = 3).

Row | Compound | EC50 (HIV-1NL4-3; read-out: EC50) [µM] | SI (CC50/EC50) (HIV-1NL4-3) | IC50 [1] [µM] | CC50 at 48 h [2] [µM] | Relative R-Luc activity at IC50 of F-Luc [3] | inhibitory effect on Tat (in words) ([1]; bl-DTR cells) | inhibition of viral-expressed eGFP signal [4] | LTR activity increase induced by adding prostratin ([1]; bl-DTR cells, Dox, sustained in the presence of compounds 9 or 13) | inhibitory effect on HIV-1 infection (in words) (HIV-1NL4-3) | EC50 (HIV-1NL4-3) [µM]
1 | Cc1[nH]c2ccc(-c3nnc(SC(C)C(=O)N4CCCCC4)o3)cc2c1C (stereo not shown) [Compound 11, 2-((5-(2,3-Dimethyl-1H-indol-5-yl)-1,3,4-oxadiazol-2-yl)thio)-1-(piperidin-1-yl)propan-1-one] | 0.4 ± 0.05 | 67.85 | 0.43 ± 0.03 | 27.1 ± 1.95 | 100 |  |  |  |  | 
2 | Cc1[nH]c2ccc(-c3nnc(SCCN4CCCCC4)o3)cc2c1C [Compound 24, 2-(2,3-Dimethyl-1H-indol-5-yl)-5-((2-(piperidin-1-yl)ethyl)thio)-1,3,4-oxadiazole] | 3.02 ± 0.09 | 13.34 | 1.97 ± 0.03 | 40.3 ± 1.74 | >100 | modest inhibitory effect |  |  |  | 
3 | Cc1[nH]c2ccc(-c3nnc(S(=O)(=O)CC(=O)N4CCCC4)o3)cc2c1C [Compound 22, 2-((5-(2,3-Dimethyl-1H-indol-5-yl)-1,3,4-oxadiazol-2-yl)sulfonyl)-1-(pyrrolidin-1-yl)ethan-1-one] |  |  |  |  |  |  | did not |  |  | 
4 | Cc1[nH]c2ccc(-c3nnc(SCC(=O)N4CCCC4)n3CCc3ccccc3)cc2c1C [Compound 31, 2-((5-(2,3-Dimethyl-1H-indol-5-yl)-4-phenethyl-4H-1,2,4-triazol-3-yl)thio)-1-(pyrrolidin-1-yl)ethan-1-one] | 5.89 ± 0.05 | 9.39 | 3.42 ± 0.12 | 55.3 ± 10.2 | >100 |  |  |  |  | 
5 | Cc1[nH]c2ccc(-c3nnc(SCCC(=O)O)o3)cc2c1C [Compound B, 3-((5-(2,3-Dimethyl-1H-indol-5-yl)-1,3,4-oxadiazol-2-yl)thio)propanoic acid] | 2.63 ± 0.34 | 16.97 | 2.29 ± 0.08 | 44.6 ± 5.68 | >100 |  |  |  |  | 
6 | CC(=O)O[C@@]12C[C@@H](C)[C@@]3(O)[C@@H](C=C(CO)C[C@]4(O)C(=O)C(C)=C[C@@H]34)[C@@H]1C2(C)C [prostratin, reference compound] |  |  |  |  |  |  |  | ~ 1.5 fold |  | 
7 | Cc1[nH]c2ccc(-c3nnc(S)o3)cc2c1C [Compound 3b, 5-(2,3-Dimethyl-1H-indol-5-yl)-1,3,4-oxadiazole-2-thiol] |  |  |  |  |  | did not exhibit a substantial biological effect |  |  | did not exhibit a substantial biological effect | 
8 | Cc1[nH]c2ccc(-c3nnc(SC(C)C(=O)N4CCCC4)o3)cc2c1C (stereo not shown) [Compound 14, 2-((5-(2,3-Dimethyl-1H-indol-5-yl)-1,3,4-oxadiazol-2-yl)thio)-1-(pyrrolidin-1-yl)propan-1-one] | 3.31 ± 0.28 | 17.44 | 3.82 ± 0.12 | 57.7 ± 6.01 | >100 |  |  |  |  | 
9 | Cc1[nH]c2ccc(-c3nnc(SCC(=O)N4CCCC(C)C4)o3)cc2c1C (stereo not shown) [Compound 10, 2-((5-(2,3-Dimethyl-1H-indol-5-yl)-1,3,4-oxadiazol-2-yl)thio)-1-(3-methylpiperidin-1-yl)ethan-1-one] | 0.56 ± 0.05 | 147.27 | 1.1 ± 0.07 | 82.5 ± 6.41 | >100 |  | remarkably inhibited |  |  | 
10 | 1-(Pyrrolidin-1-yl)-2-((5-(1,2,3-trimethyl-1H-indol-5-yl)-1,3,4-oxadiazol-2-yl)thio)ethan-1-one [Compound 19] |  |  |  |  |  | did not demonstrate any biological effect |  |  | did not demonstrate any biological effect | 
11 | 2-((5-(2,3-Dimethyl-1H-indol-5-yl)-1,3,4-oxadiazol-2-yl)thio)-1-(pyrrolidin-1-yl)propan-1-one [Compound 15] |  |  |  |  |  | increased |  |  | increased | 
12 | Cc1[nH]c2ccc(-c3nnc(SCCN4CCCC4)o3)cc2c1C [Compound 25, 2-(2,3-Dimethyl-1H-indol-5-yl)-5-((2-(pyrrolidin-1-yl)ethyl)thio)-1,3,4-oxadiazole] |  |  |  |  |  | no effect was observed |  |  | no effect was observed | 
13 | Cc1[nH]c2ccc(-c3nnc(SCC(=O)N4CCCCC4)n3C)cc2c1C [Compound 28, 2-((5-(2,3-Dimethyl-1H-indol-5-yl)-4-methyl-4H-1,2,4-triazol-3-yl)thio)-1-(piperidin-1-yl)ethan-1-one] | 21.2 ± 1.47 | 1.74 | 13.7 ± 0.53 | 36.8 ± 12.6 | 90 | critical decrease of potency |  |  | critical decrease of potency | 
14 | Cc1[nH]c2ccc(-c3nnc(SC(C)(C)C(=O)N4CCCCC4)o3)cc2c1C [Compound 12, 2-((5-(2,3-Dimethyl-1H-indol-5-yl)-1,3,4-oxadiazol-2-yl)thio)-2-methyl-1-(piperidin-1-yl)propan-1-one] |  |  |  |  |  | increased |  |  | increased | 
15 | O=C(O)CCSc1nnc(-c2cccc3ccccc23)o1 [Compound A, 3-((5-(Naphthalen-1-yl)-1,3,4-oxadiazol-2-yl)thio)propanoic acid] |  |  | 4 |  |  |  |  |  |  | 4.19
16 | Cc1[nH]c2ccc(-c3nnc(SC(C)C(=O)N4CCCCC4)n3CCc3ccccc3)cc2c1C (stereo not shown) [Compound 30, 2-((5-(2,3-Dimethyl-1H-indol-5-yl)-4-phenethyl-4H-1,2,4-triazol-3-yl)thio)-1-(piperidin-1-yl)propan-1-one] | 2.01 ± 0.11 | 11.26 | 1.74 ± 0.06 | 22.6 ± 0.47 | 100 |  |  |  |  | 
